Columns and labels:
zebrafish embryos = assay: Zebrafish genotoxicity assay; assay type: in vivo, Danio rerio; conditions: wild-type zebrafish embryos, COH29 0-100 μM
Protocol: Zebrafish (Danio rerio) were obtained from zebrafish Core facility of Taipei Medical University and maintained at 28° C. on a 14 h light/10 h dark cycle. Embryos were incubated at 28° C. and different developmental stages were determined as described (25). Wild-type embryos were treated with different concentrations of HU (0, 5, […], 20, 50 mM) or COH29 (0, 10, 20, 50, 100 μM) at 20 hpf to evaluate the mutagenic effect. Fifteen embryos were treated per well condition. […] Embryos were observed using an Olympus IX70-FLA inverted fluorescence microscope. Images were taken using SPOT digital camera system (Diagnostic Instruments, Sterling Heights, Mich., USA) and assembled with ImageJ software (26).

UWB1.289 = assay: Cytotoxicity, UWB1.289 cells; assay type: cell-based, human; conditions: Homo sapiens, UWB1289; UWB1.289, BRCA1-defective ovarian cancer cells; COH29 72 h; read-out: IC50, mean ± SEM
Protocol: (§1) All cell lines were acquired from the American Type Culture Collection (Manassas, Va., USA). Cells were maintained in RPMI 1640 medium (Mediatech) with 10% fetal bovine serum, 2 mM glutamine, and 100 U of penicillin and 100 μg of streptomycin per ml of medium (Sigma) at 37° C. in 5% CO2. To isolate HCC1437+BRCA1 cells, parental HCC1937 cells were transfected with pcDNA3.1 plasmid expressing full-length BRCA1 cDNA. Stable transfectant clones were selected and used for drug sensitivity assays. For stable transfection, cells at 30-40% confluence were incubated overnight with […] of plasmid DNA, using FUGENE® 6 transfectin reagent (Roche Molecular Biochemical, Monza, Italy) according to the manufacturer's instructions. Cells were then selected in puromycin (1 μg/ml) (Invitrogen life Technologies, La Jolla, Calif., USA.) After 20 to 30 days, viable puromycin-resistant colonies from HCC1937 transfections were expanded and screened. The clones that stably expressed […] and retained growth potential were assayed for BRCA1 expression by Western blot analysis. By Western blot analysis, we evaluated the restoration of BRCA1 expression in the puromycin-resistant cDNA/transfectant cells.
The MTT cytotoxicity assay was performed by incubating with MTT and monitoring the MTT formazan formed by viable cells with a microplate reader at a wavelength of 560 nm; the survival, ratio was determined using the formula: (Atest−Ablank)/(Acontrol−Ablank)×100%. The cytotoxicity was determined in 96-well plates using the semiautomatic fluorescence-based Digital Imaging Microscopy System (DIMSCAN). DIMSCAN uses digital imaging microscopy to quantify viable cells, which selectively accumulate FDA (fluorescein diacetate; Alfa Aesar, Ward Hill, Mass.). DIMSCAN is capable of measuring cytotoxicity over a 4 log dynamic range by quantifying total fluorescence per well (which is proportional to the number of viable cells) after elimination of the background fluorescence by digital thresholding and eosin Y (Mallinckrodt Baker, Center Valley, Pa.) quenching. Cells were seeded into 96-well plates in 100 μL of complete medium at 2,000 to 5,000 cells per well depending on cell line growth rate. After overnight incubation, test compound was added to each well at various concentrations in 50 μL of culture medium. […] Total fluorescence per well was then measured using DIMSCAN, and the results were expressed as the ratio of the fluorescence in treated wells to the fluorescence in untreated wells (survival fraction).

KB-7D = assay: Cytotoxicity, KB-7D cells; assay type: cell-based, human; conditions: Homo sapiens, KB7D, cisplatin-resistant, read-out: IC50, mean ± SEM
Protocol: as §1
The MTT cytotoxicity assay was performed by incubating with MTT and monitoring the MTT formazan formed by viable cells with a microplate reader at a wavelength of 560 nm; the survival, ratio was determined using the formula: (Atest−Ablank)/(Acontrol−Ablank)×100%. The cytotoxicity was determined in 96-well plates using the semiautomatic fluorescence-based Digital Imaging Microscopy System (DIMSCAN). DIMSCAN uses digital imaging microscopy to quantify viable cells, which selectively accumulate FDA (fluorescein diacetate; Alfa Aesar, Ward Hill, Mass.). DIMSCAN is capable of measuring cytotoxicity over a 4 log dynamic range by quantifying total fluorescence per well (which is proportional to the number of viable cells) after elimination of the background fluorescence by digital thresholding and eosin Y (Mallinckrodt Baker, Center Valley, Pa.) quenching. Cells were seeded into 96-well plates in 100 μL of complete medium at 2,000 to 5,000 cells per well depending on cell line growth rate. After overnight incubation, test compound was added to each well at various concentrations in 50 μL of culture medium. After incubation with the drugs for 96 hours at 37° C., FDA (final concentration: […]) and eosin Y [final concentration: 0.1% (w/v)] were added to each well and the cells were incubated for an additional 20 minutes at 37° C. Total fluorescence per well was then measured using DIMSCAN, and the results were expressed as the ratio of the fluorescence in treated wells to the fluorescence in untreated wells (survival fraction).

[1] = system: DNA damage checkpoint proteins (ATM, CHK1, CHK2, γ-H2AX); assay: DNA damage checkpoint proteins by Western blot; assay type: cell-based, human
Protocol: For subcellular fractionation, cells were trypsinized and washed with cold PBS solution twice. After centrifugation at 1,200 g for 5 min, cells were incubated in buffer (50 mM HEPES, pH 7.5, 150 mM NaCl, 1 mM EDTA) containing 0.2% NONIDET™ P-40 (NP-40), supplemented with protease inhibitors (5 μg/ml each of pepstatin, leupeptin, and aprotinin) and phosphatase inhibitors on ice for 5 min. Following centrifugation at 1,000 g for 5 min, the supernatant was collected (i.e., cytoplasmic fraction) and pellets were washed with the same buffer twice. The washed samples were extracted for 40 min on ice with fractionation buffer containing 0.5% NP-40 for nuclear fraction. All the samples were sonicated and clarified by centrifugation at 16,000 g for 15 min. Protein concentrations of all fractions were determined with Bio-Rad Protein Assay (Bio-Rad Laboratories, Hercules, Calif.). Immunoblotting was performed as described previously (21,22). Briefly, equal amounts of boiled protein samples were subjected to SDS-polyacrylamide gel electrophoresis (PAGE) and transferred onto nitrocellulose membranes (Bio-Rad Laboratories). Membranes were blocked for 1 hour in 3% BSA in Tris buffered saline containing 0.05% Tween 20 (TBST) and incubated for 1 hour with primary antibody (1:500 or 1:1000) diluted in TBST containing 1% BSA. After two washes with TBST, membranes were incubated for 1 hour with horseradish peroxidase-conjugated secondary Abs (1:3000 dilution) at room temperature. The immunoblots were visualized on film with the West-Q chemi-luminescence kit (GenDEPOT, Barker, Tex.).

**Q.** `O=C(Nc1nc(-c2ccc(O)c(O)c2)c(-c2ccccc2)s1)c1ccc(O)c(O)c1` [COH29] was tested. Which viability (zebrafish embryos) did it give?
**A.** no developmental defects (FIG. 5C) or decrease in viability

**Q.** And the developmental defects (zebrafish embryos; HU 0-50 mM)?
**A.** no developmental defects

**Q.** And the IC50 (UWB1.289)?
**A.** 12.3 ± 1.15 µM

**Q.** And the IC50 (KB-7D)?
**A.** 8.48 ± 0.27 µM

**Q.** What about the γ-H2AX level ([1]; MCF7 and MCF-7 p53−/− cells) of the same molecule?
**A.** increase in the γ-H2AX level

**Q.** What about the “DNA damage checkpoint activation (phosphorylation of ATM, CHK1, CHK2)” value ([1]; MCF7 cells, wild-type p53) of the same molecule?
**A.** activated the DNA damage checkpoint

**Q.** What about the “DNA damage checkpoint proteins (ATM, CHK1, CHK2) modification” value ([1]; MCF-7 p53−/− cells) of the same molecule?
**A.** similarly modified

From patent US10201530B2, “Treatment of BRCA1-defective cancer or resistant cancers” (City of Hope, priority 2014, dated 2019)
